Measurements reported in PubChem BioAssay AID256 (DTP/NCI, 2004).
Toxic doses and inconclusive results are not listed. The calls were made as follows: active = survival T/C of 150% or more; inactive = T/C below 125% in these data.

System: CD2F1 mice, L1210 leukemia ip, survival T/C
Assay: NCI In Vivo Anticancer Drug Screen. Data for tumor model L1210 Leukemia (intraperitoneal) in CD2F1 (CDF1) mice
Settings: higher = longer survival
Method in brief: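 Tumor-bearing mice (transplanted tumor) were split into treated and vehicle control groups, and the measured endpoint of each treated group was divided by that of its vehicle controls.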

[1] = endpoint: mean survival time, dose: 100.0 mg/kg/injection, schedule: Q04DX003 (ip), vehicle: saline with Tween-80
[2] = endpoint: mean survival time, dose: 200.0 mg/kg/injection, schedule: Q04DX003 (ip), vehicle: saline with Tween-80
[3] = endpoint: mean survival time, dose: 400.0 mg/kg/injection, schedule: Q04DX003 (ip), vehicle: saline with Tween-80

Measured: T/C

CCN1CCS/C1=C\C=C\C1=[N+](CC)CCS1
inactive: endpoint: mean survival time, dose: 1.25 mg/kg/injection, schedule: Q01DX001 (ip), vehicle: other 98 % of control | endpoint: mean survival time, dose: 2.5 mg/kg/injection, schedule: Q01DX001 (ip), vehicle: other 101 % of control

CCCCOCN(COCCCC)c1ccccc1
inactive: endpoint: mean survival time, dose: 100.0 mg/kg/injection, schedule: Q01DX001 (ip), vehicle: saline with Tween-80 109 % of control | endpoint: mean survival time, dose: 200.0 mg/kg/injection, schedule: Q01DX001 (ip), vehicle: saline with Tween-80 103 % of control | endpoint: mean survival time, dose: 400.0 mg/kg/injection, schedule: Q01DX001 (ip), vehicle: saline with Tween-80 97 % of control

O=[P+](O)O[P+](=O)O.O=[P+](O)O[P+](=O)O.O=[P+](O)O[P+](=O)O.O=[P+](O)O[P+](=O)O.[Cl][Pt].[Cl][Pt]
inactive: endpoint: median survival time, dose: 3.12 mg/kg/injection, schedule: Q04DX003 (ip), vehicle: saline 102 % of control | endpoint: median survival time, dose: 6.25 mg/kg/injection, schedule: Q04DX003 (ip), vehicle: saline 96 % of control | endpoint: median survival time, dose: 12.5 mg/kg/injection, schedule: Q04DX003 (ip), vehicle: saline 95 % of control | endpoint: median survival time, dose: 25.0 mg/kg/injection, schedule: Q04DX003 (ip), vehicle: saline 97 % of control | endpoint: median survival time, dose: 50.0 mg/kg/injection, schedule: Q04DX003 (ip), vehicle: saline 104 % of control

CCCCCCCCCCCCCCCC(CCCCCC)CCCCCC
inactive: endpoint: mean survival time, dose: 100.0 mg/kg/injection, schedule: Q01DX001 (ip), vehicle: saline sonified 102 % of control | endpoint: mean survival time, dose: 200.0 mg/kg/injection, schedule: Q01DX001 (ip), vehicle: saline sonified 98 % of control | endpoint: mean survival time, dose: 400.0 mg/kg/injection, schedule: Q01DX001 (ip), vehicle: saline sonified 102 % of control

Oc1ccccc1C=Nc1ccc(N=Cc2ccccc2O)cc1
inactive: [1] 88 % of control | [2] 91 % of control | [3] 100 % of control

O=C1CCC2(Cc3ccccc3C2=O)O1 (stereo not given)
inactive: endpoint: mean survival time, dose: 75.0 mg/kg/injection, schedule: Q01DX001 (ip), vehicle: saline 94 % of control | endpoint: mean survival time, dose: 150.0 mg/kg/injection, schedule: Q01DX001 (ip), vehicle: saline 96 % of control | endpoint: mean survival time, dose: 300.0 mg/kg/injection, schedule: Q01DX001 (ip), vehicle: saline 94 % of control

CC(=O)Nc1ccc(CC#N)cc1
inactive: endpoint: mean survival time, dose: 5.0 mg/kg/injection, schedule: Q04DX003 (ip), vehicle: saline sonified 103 % of control | endpoint: mean survival time, dose: 10.0 mg/kg/injection, schedule: Q04DX003 (ip), vehicle: saline sonified 114 % of control | endpoint: mean survival time, dose: 20.0 mg/kg/injection, schedule: Q04DX003 (ip), vehicle: saline sonified 94 % of control

O=C(O)/C(=C\c1ccc(Br)cc1)c1ccc(C(F)(F)F)cc1[N+](=O)[O-]
inactive: endpoint: mean survival time, dose: 75.0 mg/kg/injection, schedule: Q04DX003 (ip), vehicle: saline 89 % of control | endpoint: mean survival time, dose: 150.0 mg/kg/injection, schedule: Q04DX003 (ip), vehicle: saline 101 % of control | endpoint: mean survival time, dose: 300.0 mg/kg/injection, schedule: Q04DX003 (ip), vehicle: saline 100 % of control

CCOC(=O)C1(C(=O)OCC)CCC(OCC)N1C(=O)c1ccccc1[N+](=O)[O-] (stereo not given)
inactive: endpoint: mean survival time, dose: 100.0 mg/kg/injection, schedule: Q01DX001 (ip), vehicle: Klucel (hydroxypropylcellulose) (HPC) 100 % of control | endpoint: mean survival time, dose: 200.0 mg/kg/injection, schedule: Q01DX001 (ip), vehicle: Klucel (hydroxypropylcellulose) (HPC) 92 % of control | endpoint: mean survival time, dose: 400.0 mg/kg/injection, schedule: Q01DX001 (ip), vehicle: Klucel (hydroxypropylcellulose) (HPC) 92 % of control

Nc1nc(Nc2ccccc2)c2ncn(C3OC(CO)C(O)C3O)c2n1 (stereo not given)
inactive: endpoint: mean survival time, dose: 6.25 mg/kg/injection, schedule: Q01DX005 (ip), vehicle: distilled water + Tween-80 98 % of control | endpoint: mean survival time, dose: 12.5 mg/kg/injection, schedule: Q01DX005 (ip), vehicle: distilled water + Tween-80 98 % of control | endpoint: mean survival time, dose: 25.0 mg/kg/injection, schedule: Q01DX005 (ip), vehicle: distilled water + Tween-80 102 % of control | endpoint: mean survival time, dose: 50.0 mg/kg/injection, schedule: Q01DX005 (ip), vehicle: distilled water + Tween-80 101 % of control | endpoint: mean survival time, dose: 100.0 mg/kg/injection, schedule: Q01DX005 (ip), vehicle: distilled water + Tween-80 98 % of control

CC(NC1CCCCC1)c1ccc(O)cc1O (stereo not given)
inactive: endpoint: mean survival time, dose: 75.0 mg/kg/injection, schedule: Q01DX001 (ip), vehicle: other 93 % of control | endpoint: mean survival time, dose: 150.0 mg/kg/injection, schedule: Q01DX001 (ip), vehicle: other 87 % of control

CCC(c1ccc2cc(OC)ccc2c1)C(C(=O)O)C(=O)O (stereo not given)
inactive: endpoint: mean survival time, dose: 100.0 mg/kg/injection, schedule: Q04DX003 (ip), vehicle: Klucel (hydroxypropylcellulose) (HPC) 95 % of control | endpoint: mean survival time, dose: 200.0 mg/kg/injection, schedule: Q04DX003 (ip), vehicle: Klucel (hydroxypropylcellulose) (HPC) 93 % of control

O=C(Nc1ccc2c(c1)Cc1cc(Br)ccc1-2)C(F)(F)F
inactive: [1] 101 % of control | [2] 97 % of control | [3] 101 % of control
